Measurements taken from patent EP3818828A1 (priority 2019, dated 2021).
Several values for one entry are separate records, joined by “and”; a condition that tells them apart may be missing. Equal entries are not always repeated. Where two headings read alike, the source gives them in different places.

Assays:
C. gossypii = test: Ex vivo mycelial growth inhibition, growth rate method; format: cell-based; conditions: 1 mg/mL; for Average Diameter of the Colony: C. gossypii; for inhibition at 1000 µg/mL: Colletotrichum gossypii, C. cossypii, read-out: Inhibition Rate
From the text: (§1) 3-(3',4'-methylenedioxy phenyl)-N-n-propyl acrylamide (at a purity of 99%), 3-(3',4'-methylenedioxy phenyl)-piperidine acrylate (at a purity of 99%), the control agents, 96.5% of chlorothalonil technical (non-systemic broad-spectrum fungicide), 97.2% of carbendazim technical (systemic broad-spectrum fungicide), 97.0% of procymidone technical (systemic fungicide), 96.0% of dimethomorphtechnical ((E,Z)-4-[3-(4-chlorphenyl)3-(3,4-dimethoxy phenyl)acryloyl]morpholine, systemic fungicide), 97.0% of azoxystrobin technical (systemic broad-spectrum fungicide).
(§2) The inhibition of samples for testing on the mycelial growth of plant pathogenic fungi for testing is determined with a growth rate method. 3-(3',4'-methylenedioxy phenyl)-N-n-propyl acrylamide, 3-(3',4'-methylenedioxy phenyl)-piperidine acrylate and five control agents are dissolved with dimethyl sulfoxide (DMSO), then formulated at 5-7 concentrations of different gradients for test following the trial test results, with the same concentration of DMSO as the control solvent, each treatment in triplicate. Fungal cakes with a diameter of 4 mm are taken from the edge of the colony, inoculated into the center of a PDA plate containing different agents of different concentrations and the DMSO control, with one piece of fungal cake inoculated in each plate (with a diameter of […]), and incubated in a constant temperature incubator at a temperature of 22±1.5°C. 7 days later (10-20 days may be needed for some pathogenic fungi), the diameter of the colony is measured with a cross over method according to the mycelial growth profile of the control pathogenic fungi, then the inhibition rate of mycelial growth is calculated.
(§3) The computational formula is as below: the inhibition rate of mycelial growth (%) = [(the diameter of the control colony - the diameter of the treated colony)/the diameter of the control colony] × 100.
(§4) The inhibition results of each agent at a concentration of 1 mg/mL on the mycelial growth of plant pathogenic fungi are shown in Tables 1 and 2.

[1] = tested on: Gaeumannomyces graminis var. graminis and G. graminis var. tritici; test: as above; format: cell-based; conditions: 1 mg/mL
From the text: as §1, §2, §3, §4

[2] = tested on: Botryosphaeria berengeriana; test: as above; format: cell-based; conditions: 1 mg/mL
From the text: as §1, §2, §3, §4

[3] = tested on: Botryosphaeriana berengeriana; test: as above; format: cell-based; conditions: 1 mg/mL
From the text: as §1, §2, §3, §4

Mycosphaerlla melonis = test: as above; format: cell-based; conditions: 1 mg/mL
From the text: as §1, §2, §3, §4

Pythium aphanidermatum = test: as above; format: cell-based; conditions: 1 mg/mL
From the text: as §1, §2, §3, §4

Valsa mali = test: as above; format: cell-based; conditions: 1 mg/mL; for inhibition at 1000 µg/mL: Cytospora mali
From the text: as §1, §2, §3, §4

Phytophthora capsici = test: as above; format: cell-based; conditions: for Average Diameter of the Colony / inhibition at 1000 µg/mL: Phytophthora capsici, 1 mg/mL; for antifungal activity against Phytophthora capsici: supplementary determination, compared with hymexazol
From the text: as §1, §2, §3, §4

Colletotrichum capsici = test: as above; format: cell-based; conditions: 1 mg/mL; for inhibition at 1000 µg/mL: Colletotrichum truncatum
From the text: as §1, §2, §3, §4

F. verticillioide = test: as above; format: cell-based; conditions: 1 mg/mL
From the text: as §1, §2, §3, §4

Rhizoctonia solani = test: as above; format: cell-based; conditions: for Average Diameter of the Colony / inhibition at 1000 µg/mL: Rhizoctonia solani, 1 mg/mL
From the text: as §1, §2, §3, §4

Phytophthora infestans [4] = format: cell-based; conditions: Phytophthora infestas; 1 mg/mL
Phytophthora infestans [5] = test: microbe, parasite or virus in culture; format: cell-based; conditions: 1 mg/mL
Oidium lini = test: Field efficiency test, flax powdery mildew; format: in vivo; conditions: 0.50 mg/mL (active ingredients)
Procedure: The formulation of emulsifiable concentrate is the same as that in Embodiment 3.
The variety of flax is Zhangya No. 2. 10% of 3-(3',4'-methylenedioxy phenyl)-N-n-propyl acrylamide EC and 14% of 3-(3',4'-methylenedioxy phenyl)-piperidine acrylate EC were both diluted at a concentration of 0.50 mg/mL (active ingredients); the control agent, 430 g/L of tebuconazole SC, was also diluted at a concentration of 0.50 mg/mL (active ingredients); additionally clear water was used as the control. The first application was started at the first appearance of spots for flax powdery mildew (Oidium lini) (natural incidence), and the second application was carried out 10 days later. The instrument for application was a WS-18D knapsack electric sprayer, which employed a cone nozzle. Each agent was formulated into the desired concentrations according to the usage amount of the control clear water. Both sides of the leaves were sprayed evenly. 10 days after the second application, the number of sick leaves at each grade of powdery mildew was investigated for the whole plant following the grading standard of 9 grades, to calculate the disease index and the control effect.

Pyricularia grisea = test: microbe, parasite or virus in culture; format: cell-based; conditions: for Average Diameter of the Colony: 1 mg/mL; for inhibition at 1000 µg/mL: read-out: Inhibition Rate
[6] = tested on: Erysiphe cucurbitacearum or Sphaerotheca cucurbitae; test: In-vivo greenhouse control of zucchini powdery mildew
Procedure: 3.88 g of 3-(3',4'-methylenedioxy phenyl)-N-n-propyl acrylamide was weighed and dissolved in 25 g of absolute ethyl alcohol, then 6 g of emulsifier 0203B was added, and mixed uniformly with stirring to get 10% of 3-(3',4'-methylenedioxy phenyl)-N-n-propyl acrylamide EC.
5.61 g of 3-(3',4'-methylenedioxy phenyl)-piperidine acrylate was weighed and dissolved in 25 g of absolute ethyl alcohol, then 6 g of emulsifier 0203B was added, and mixed uniformly with stirring to get 14% of 3-(3',4'-methylenedioxy phenyl)-piperidine acrylate EC.
Zucchini (Variety: Wuwei Xianglin extra-early 1st generation) was cultured in pots in a greenhouse, and inoculated with Erysiphe cucurbitacearum or Sphaerotheca cucurbitae at the stage of 3 to 4 leaves. The first application was started at the early onset (onset at the first true leaf: first appearance of spots), comprising 10% of 3-(3',4'-methylenedioxy phenyl)-N-n-propyl acrylamide EC and 14% of 3-(3',4'-methylenedioxy phenyl)-piperidine acrylate EC, which were both diluted at four concentrations of 0.50, 0.333, 0.25, 0.20 mg/mL (active ingredients), additionally clear water was used as the control. Both sides of the leaves were sprayed evenly with a small hand-held sprayer so that the leaves were wetted by the liquor without loss. Applications were conducted every 7 days consecutively for 4 times. 10 days after the fourth application, the number of sick leaves at each grade of powdery mildew was investigated for the whole plant following the grading standard of 9 grades, to calculate the disease index and the control effect. The computational formula is as below: Disease index = [(Number of sick leaves at each grade×Corresponding grade value)/(Total number of investigated leaves×9)] × 100; [formula] Control effect = (Disease index of the clear water control−Treated disease index)/Disease index of the clear water control × 100. [formula]

[7] = 0.333 mg/mL (active ingredients)
[8] = 0.50 mg/mL (active ingredients), spray every 7 days, 4 times

Row | Compound | Average Diameter of the Colony (C. gossypii) | inhibition at 1000 µg/mL (C. gossypii) | Average Diameter of the Colony [1] | inhibition at 1000 µg/mL [1] | Average Diameter of the Colony [2] | inhibition at 1000 µg/mL [2] | Average Diameter of the Colony [3] | inhibition at 1000 µg/mL [3] | Average Diameter of the Colony (Mycosphaerlla melonis) | inhibition at 1000 µg/mL (Mycosphaerlla melonis) | Average Diameter of the Colony (Pythium aphanidermatum) | inhibition at 1000 µg/mL (Pythium aphanidermatum) | Average Diameter of the Colony (Valsa mali) | inhibition at 1000 µg/mL (Valsa mali) | Average Diameter of the Colony (Phytophthora capsici) | inhibition at 1000 µg/mL (Phytophthora capsici) | antifungal activity against Phytophthora capsici (Phytophthora capsici) | Average Diameter of the Colony (Colletotrichum capsici) | inhibition at 1000 µg/mL (Colletotrichum capsici) | Average Diameter of the Colony (F. verticillioide) | also measured
1 | CCCNC(=O)/C=C/c1ccc2c(c1)OCO2 [3-(3',4'-methylenedioxyphenyl)-N-n-propyl acrylamide] | 1.74 cm | 67.8% | 3.05 cm | 57.3% | 3.60 cm | 47.1% | 4.63 cm | 18.8% | 0.58 cm | 93.3% | 0.21 cm | 96.9% | 0.65 cm | 91.8% | 0.65 cm | 87.7% | superior to that of the control agent, hymexazol | 1.66 cm | 75.5% | 2.94 cm | inhibition at 1000 µg/mL (F. verticillioide): 13%; Average Diameter of the Colony (Rhizoctonia solani): 0.25 cm; inhibition at 1000 µg/mL (Rhizoctonia solani): 96.5%; Average Diameter of the Colony (Phytophthora infestans [4]): 2.05 cm; Average Diameter of the Colony (Phytophthora infestans [5]): 0.00 cm; Control Effect (Oidium lini): 83.70%; Average Diameter of the Colony (Pyricularia grisea): 5.30 cm; inhibition at 1000 µg/mL (Pyricularia grisea): 41.1%; Control Effect [6, 7]: 77.13%; Control Effect [6, 8]: 91.09%
2 | O=C(/C=C/c1ccc2c(c1)OCO2)N1CCCCC1 [3-(3',4'-methylenedioxyphenyl)-piperidine acrylate] | 0.10 cm | 98.2% | 0.39 cm | 94.5% | 0.22 cm | 96.8% | 0.14 cm | 97.5% | 0.00 cm | 100% | 0.06 cm | 99.1% | 0.00 cm | 100% | 0.00 cm | 100% | superior to that of the control agent, hymexazol | 0.28 cm | 95.9% | 0.49 cm | inhibition at 1000 µg/mL (F. verticillioide): 85.5%; Average Diameter of the Colony (Rhizoctonia solani): 0.00 cm; inhibition at 1000 µg/mL (Rhizoctonia solani): 100%; antifungal activity against Rhizoctonia solani (Rhizoctonia solani; supplementary determination, compared with chlorothalonil, dimethomorph and azoxystrobin): superior to that of chlorothalonil, dimethomorph and azoxystrobin; Average Diameter of the Colony (Phytophthora infestans [4]): 0.81 cm; Average Diameter of the Colony (Phytophthora infestans [5]): 0.00 cm; Control Effect (Oidium lini): 41.82%; Average Diameter of the Colony (Pyricularia grisea): 1.60 cm; inhibition at 1000 µg/mL (Pyricularia grisea): 82.2%; Control Effect [6, 7]: 67.06%; Control Effect [6, 8]: 67.06% and 87.13%
